According to publication PMC6753678, “Fueling Open Innovation for Malaria Transmission-Blocking Drugs: Hundreds of Molecules Targeting Early Parasite Mosquito Stages” (Frontiers in Microbiology, 2019):
Like-named read-outs stand apart in the source and are kept apart here.

Key:
[1] = tested on: P. falciparum female gametocytes; set-up: method as in Miguel-Blanco et al 2017; conditions: ref Miguel-Blanco et al 2017, read-out: Pf FGAA IC50, cited from earlier work
[2] = tested on: HepG2 cells; conditions: cited from earlier work
[3] = tested on: P. berghei ookinete development; conditions: for % inhibition, Replicate A / % inhibition, Replicate B: primary screen at 1 μM
[4] = tested on: 3D7-strain P. falciparum asexual parasites; test: P. falciparum asexual growth inhibition assay (Pf GIA); format: cell-based, Plasmodium falciparum
How it was run: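 3D7 parasites at 0.25% parasitemia, 2% hematocrit were exposed to compounds in dose response for 72 h at 37°C under 5% CO2, 5% O2. Viability read as parasite LDH activity (nitro blue tetrazolium, A650) after freeze-thaw; inhibition scaled to chloroquine (50 μM) and DMSO controls, mean of three biological replicates.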

[5] = tested on: P. falciparum female gametocytes; test: P. falciparum female gametogenesis assay (Pf FGAA); conditions: 1: YES; 0: NO
[6] = tested on: HepG2 cells; test: HepG2 cytotoxicity assay; conditions: for IC50: read-out: HepG2 cytotoxicity assay IC50, dose response confirmation; for HepG2 cytoxicity: value reported with the Pb ODA screen
How it was run: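 Percent inhibition derived from fluorescent viability readout, normalised to DMSO (negative) and 50 μM doxorubicin (positive). Compound incubation lasted 48 h at 37°C, 5% CO2, with 2,500 HepG2 cells/well in MEM plus 10% FBS and 1% NEAA.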

[7] = tested on: P. falciparum late stage (stages IV-V) gametocytes; set-up: method as in Almela et al 2016; conditions: ref Almela et al 2016, read-out: Pf GCT ATP IC50, cited from earlier work
[8] = tested on: P. falciparum late stage (stages IV-V) gametocytes; test: P. falciparum late stage gametocyte ATP depletion assay (Pf GC-ATP); conditions: 1: YES; 0: NO
[9] = tested on: P. berghei ookinete development; test: microbe, parasite or virus in culture; conditions: Plasmodium berghei
[10] = value reported with the Pf FGAA screen, ref Miguel-Blanco et al 2017
[11] = value reported with the Pf GCT ATP screen, ref Almela et al 2016
[12] = read-out: Pb ODA IC50, this manuscript
[13] = read-out: Pb Ookinete development assay IC50, dose response confirmation
[14] = dose response confirmation, read-out: Pf asexual growth inhibition assays IC50
[15] = HepG2 cytotoxicity unified across the three screens

| SMILES | IC50 ([1]; TCAMS screen comparison) | HepG2 cytoxicity [2, 10] | HepG2 cytoxicity [2, 11] | Is compound selective in assay? Pb ODA active? ([3]; 1: YES, 0: NO) | % inhibition, Replicate A [3] | % inhibition, Replicate B [3] | IC50 [3, 12] | IC50 [3, 13] | IC50 [4, 14] | Is compound selective in assay? Pf FGAA active? [5] | Unified cytotox [6, 15] | IC50 [6] | HepG2 cytoxicity ([6]; this manuscript) | IC50 ([7]; TCAMS screen comparison) | Is compound selective in assay? Pf GC-ATP active? [8] | further results |
| --- | --- | --- | --- | --- | --- | --- | --- | --- | --- | --- | --- | --- | --- | --- | --- | --- |
| CCc1c(CCNCCCCCCNCCc2ccc([N+](=O)[O-])cc2)ccc(OC)c1OC.Cl [TCMDC-132066] | 1460 nM | 4.57 µM | 6.67 µM | 0 (0: NO) | 25.72% | 55.23% | 6610 nM | 6600 nM | 675 nM | 0 (0: NO) | 5.46 µM | 5130 nM | 5.13 µM | 540 nM | 1 (1: YES) |  |
| CC1(C)CC(NCCCCCCCOc2ccc(OCc3ccccc3)cc2)CC(C)(C)N1.Cl [TCMDC-138958] | 1230 nM | 2.75 µM | 3 µM |  | 59.61% | 10.57% |  |  |  | 0 (0: NO) | 2.88 µM |  |  | 680 nM | 0 (0: NO) |  |
| C[C@@H]1C[C@@H]([C@H](O)CC2CC(=O)NC(=O)C2)C(=O)[C@@H](C)C1 [TCMDC-125838] |  |  |  |  |  |  |  |  |  |  |  | 100000 nM |  |  |  | Is compound selective in assay? Pb ODA active? [3]: 1 (key: 1: YES; 0: NO); inhibition at 1 µM ([9]; read-out: % inhibition, Replicate A): 110%; inhibition at 1 µM ([9]; read-out: % inhibition, Replicate B): 117%; IC50 ([9]; read-out: Pb ODA IC50 (µM)): 0.11 µM; IC50 ([9]; read-out: Pb Ookinete development assay IC50): 0.109 µM; IC50 ([4]; Plasmodium falciparum, 3D7, read-out: Pf asexual growth inhibition assays IC50): 596 nM; Unified cytotox ([6]; unified HepG2 value across the three screens): 100.00 µM |
| Cl.c1ccc2c(NCCCCCCCCCNc3c4ccccc4nc4ccccc34)c3ccccc3nc2c1 [TCMDC-124286] |  |  |  | 0 (0: NO) | 34.80% | 55.23% | 2030 nM | 2030 nM | 349 nM | 0 (0: NO) |  | 5500 nM |  |  | 0 (0: NO) | IC50 [1]: 1800 nM; HepG2 cytoxicity (Pf GCT ATP screen) ([2]; HepG2, ref Almela et al 2016): 6.1 µM; HepG2 cytoxicity (Pf FGAA screen) ([2]; HepG2, ref Miguel-Blanco et al 2017): 4.90 µM; HepG2 cytoxicity (Pb ODA, this manuscript) ([6]; HepG2, this manuscript): 5.50 µM; Unified cytotox ([6]; HepG2 values of the three screens unified): 5.50 µM; IC50 [7]: 1500 nM |
| Cc1occc1C(=O)Nc1nc(-c2ccccn2)nc2ccsc12 [TCMDC-135244] | 60 nM | >100 µM | <1.56 µM | 0 (0: NO) | 79.17% | 64.59% | 1340 nM | 1340 nM | 656 nM | 1 (1: YES) | 0.87 µM | 870 nM |  | 300 nM | 0 (0: NO) |  |
| CC(=O)c1ccc2nc[nH]c(=O)c2c1 [TCMDC-138172] | 980 nM | 6.24 µM | <1.56 µM | 0 (0: NO) | 76.19% | 65.80% | 500 nM | 503 nM | 287 nM | 0 (0: NO) | 3.74 µM | 1240 nM | 1.24 µM | 400 nM | 0 (0: NO) |  |
| O=C(O)CCSSc1cccc[n+]1[O-] [TCMDC-141973] | 40 nM | 19.05 µM | 7.8 µM | 1 (1: YES) | 62.58% | 47.23% | 1910 nM | 1910 nM | 1650 nM | 1 (1: YES) | 19.25 µM | 30900 nM | 30.90 µM | 270 nM | 1 (1: YES) |  |
| COc1cc(-c2cc(-c3ccc(S(C)(=O)=O)cc3)cnc2N)ccc1O [TCMDC-133343] | 390 nM | 41.69 µM | >25 µM | 1 (1: YES) | 63.88% | 36.72% | 2110 nM | 2110 nM | 242 nM | 1 (1: YES) | 49.62 µM | 57500 nM | 57.54 µM | 1240 nM | 1 (1: YES) |  |
| ON=C1CCc2cc(-c3cc(-c4ccc(OC5CCNCC5)cc4)oc3-c3ccncc3)ccc21 [TCMDC-141381] | 200 nM | 5.01 µM | 7.5 µM | 0 (0: NO) | 75.99% | 61.54% | 1410 nM | 1410 nM | 123 nM | 1 (1: YES) | 5.92 µM | 5250 nM | 5.25 µM | 270 nM | 1 (1: YES) |  |
| C=CCC1OC(=O)c2cc(OC)cc(OC)c21 (stereo not shown) [TCMDC-138677] | 360 nM | 2.29 µM | <1.56 µM | 0 (0: NO) | 53.73% | 47.60% | 2360 nM | 2360 nM | 447 nM | 0 (0: NO) | 2.43 µM | 2570 nM | 2.57 µM | 600 nM | 0 (0: NO) |  |
| Nc1nc(N)c2c(ccc3c2ccn3Cc2ccc(-c3ccccc3)cc2)n1 [TCMDC-137813] | 2010 nM | 1.16 µM | 1.6 µM |  | 53.67% | 5.32% |  |  |  | 0 (0: NO) | 1.38 µM |  |  | 1450 nM | 0 (0: NO) |  |
| Cc1ccc(C(=O)Nc2ccc(Nc3ccnc4cc(-c5ccccn5)ccc34)cc2O)cc1.Cl [TCMDC-138205] | 540 nM | 1.27 µM | 3.11 µM |  |  |  |  |  |  | 0 (0: NO) | 2.19 µM |  |  | 480 nM | 0 (0: NO) |  |
| FC(F)(F)c1ccc2[nH]c(-c3cccc(-c4ccc(CNCCN5CCNCC5)cc4)c3)nc2c1.O=C(O)C(F)(F)F [TCMDC-132872] | 1790 nM | 8.81 µM | 12.62 µM |  |  |  |  |  |  | 0 (0: NO) | 10.72 µM |  |  | 860 nM | 1 (1: YES) |  |
| CC(C)(C)c1ccc(CN2CCC(CNC(=O)c3cc(-c4cccc(C(F)(F)F)c4)cs3)C2)cc1.O=C(O)C(F)(F)F (stereo not shown) [TCMDC-134442] | 950 nM | 6.39 µM | 4.9 µM |  |  |  |  |  |  | 0 (0: NO) | 5.65 µM |  |  | 420 nM | 1 (1: YES) |  |
